From patent US20250171431A1, “HETEROCYCLIC INHIBITORS OF IGF-1R FOR TREATMENT OF DISEASE” (HORIZON THERAPEUTICS IRELAND DAC, priority 2023, published 2025) come the findings set out here.

Test [1] concerns the target T1, IGF-1R (Homo sapiens (Human), UniProt P08069). Nature of the test: Example B-1: IGF-1R Assay (PC3 cells, IGF1 stimulation, AlphaLISA). Type of test: cell-based. Conditions: 200 ng/mL IGF1 stimulation, read-out: Biological Activity against IGF-1R IC50. The essentials: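 Readout is AlphaLISA signal from lysed PC3 cells, expressed as % inhibition versus vehicle and EC80 controls and banded by IC50. Before lysis, the cells were starved of serum for 2 h, exposed to 3× serially diluted compound for 2 h, and stimulated for 30 min with 200 ng/mL IGF1 (final).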
Target sequence in this assay (P08069 31-1367): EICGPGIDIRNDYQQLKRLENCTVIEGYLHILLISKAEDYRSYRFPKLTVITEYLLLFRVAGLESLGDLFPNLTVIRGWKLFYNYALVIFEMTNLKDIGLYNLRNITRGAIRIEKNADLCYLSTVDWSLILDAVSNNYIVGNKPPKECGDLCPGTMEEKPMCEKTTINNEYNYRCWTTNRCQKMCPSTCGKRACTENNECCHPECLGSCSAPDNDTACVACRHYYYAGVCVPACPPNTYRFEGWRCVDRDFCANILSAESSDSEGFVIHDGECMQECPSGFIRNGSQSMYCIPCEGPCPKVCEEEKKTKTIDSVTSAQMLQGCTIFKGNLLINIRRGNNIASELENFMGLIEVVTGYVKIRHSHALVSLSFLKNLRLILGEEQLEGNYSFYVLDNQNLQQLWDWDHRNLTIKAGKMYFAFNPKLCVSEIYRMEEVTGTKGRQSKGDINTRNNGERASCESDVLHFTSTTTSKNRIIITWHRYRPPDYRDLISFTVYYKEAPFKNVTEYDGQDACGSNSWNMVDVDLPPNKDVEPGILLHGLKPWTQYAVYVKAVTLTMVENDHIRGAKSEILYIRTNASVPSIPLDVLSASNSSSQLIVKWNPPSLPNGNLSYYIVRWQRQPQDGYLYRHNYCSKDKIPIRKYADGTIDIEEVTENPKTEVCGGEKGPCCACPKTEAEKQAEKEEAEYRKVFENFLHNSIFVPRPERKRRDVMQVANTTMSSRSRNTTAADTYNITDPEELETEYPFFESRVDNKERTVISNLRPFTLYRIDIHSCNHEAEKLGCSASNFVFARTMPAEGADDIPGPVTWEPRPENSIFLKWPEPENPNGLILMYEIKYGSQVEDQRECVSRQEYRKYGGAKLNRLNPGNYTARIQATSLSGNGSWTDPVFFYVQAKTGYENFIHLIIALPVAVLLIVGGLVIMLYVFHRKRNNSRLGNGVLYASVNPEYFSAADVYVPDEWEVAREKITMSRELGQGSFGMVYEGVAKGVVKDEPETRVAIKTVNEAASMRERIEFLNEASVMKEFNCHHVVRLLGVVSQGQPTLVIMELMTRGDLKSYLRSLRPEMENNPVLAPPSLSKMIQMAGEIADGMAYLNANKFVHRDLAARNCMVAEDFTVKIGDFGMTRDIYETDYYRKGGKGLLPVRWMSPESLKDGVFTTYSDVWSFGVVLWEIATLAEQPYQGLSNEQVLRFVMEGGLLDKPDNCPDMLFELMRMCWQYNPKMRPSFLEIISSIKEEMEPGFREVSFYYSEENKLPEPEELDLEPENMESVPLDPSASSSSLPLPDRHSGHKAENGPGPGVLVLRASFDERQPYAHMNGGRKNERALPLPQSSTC

Test [2] concerns the target T1, IGF-1R. Nature of the test: Example B-2: IGF-1R Assay (PathHunter cell lines, EC80 agonist challenge). To be noted: read-out: IC50 (Biological Activity against IGF-1R). Type of test: cell-based. Here is the method: PathHunter cell lines were expanded from freezer stocks according to standard procedures. Cells were seeded in a total volume of 20 μL into white walled, 384-well microplates and incubated for the appropriate time prior to testing.
Cells are pre-incubated with compound followed by EC80 agonist challenge as follows: • 1. Intermediate dilution of sample stocks was performed to generate 5× sample in assay buffer. • 2. 5 μL of 5× sample was added to cells and incubated at 37° C. for 60 minutes. Vehicle concentration was 1%. • 3. 5 μL of 6×EC80 agonist in assay buffer was added to the cells and incubated at room temperature for 3 hours.
Assay signal was generated through a single addition of 12.5 or 15 μL (50% v/v) of PathHunter Detection reagent cocktail for agonist and antagonist assays respectively, followed by a one hour incubation at room temperature. Microplates were read following signal generation with a PerkinElmer Envision™ instrument for chemilumine-scent signal detection.
Compound activity was analyzed using CBIS data analysis suite (ChemInnovation, CA). Percentage inhibition was calculated using the following formula: % Inhibition=100%×(1−(mean RLU of test sample−mean RLU of vehicle control)/(mean RLU of EC80 control−mean RLU of vehicle control)). The activity for representative examples of the invention is shown in the following table, wherein A: IC50≤500 nM; B: 500 nM<IC50≤2 μM; C: […]≤10 μM; D: IC50>[…].
Target sequence in this assay (P08069 31-1367, species assumed): as the sequence (P08069 31-1367) above

With `COc1cc(Nc2nccc(Nc3cnc4ccccc4c3)n2)ccc1O[C@H]1C[C@@H](N2CCOCC2)C1` [Compound 21, 2-{3-methoxy-4-[(1s,3s)-3-morpholinocyclobutoxy]phenylamino}-4-(3-quinolylamino)pyrimidine], the IC50 in test [1] and in test [2] was no more than 500 nM in each case.

Regarding `COc1cc(Nc2nccc(Nc3cnc4c(c3)CCC3(CCC3)C4)n2)ccc1O[C@H]1C[C@H](N(C)C)C1` [Compound 77, 4-(6′,8′-dihydro-5′H-spiro[cyclobutane-1,7′-quinolin]-3′-ylamino)-2-{3-methoxy-4-[(1r,3r)-3-(dimethylamino)cyclobutoxy]phenylamino}pyrimidine], the concentration for half-maximal inhibition (IC50) in test [1] and in test [2] was no more than 500 nM in each case.

On to `CN(C)CC(=O)N1CCc2ccc(Nc3nccc(Nc4cnc5ccccc5c4)n3)cc21` [Compound 92, 2-(dimethylamino)-1-{6-[4-(3-quinolylamino)-2-pyrimidinylamino]-1-indolinyl}-1-ethanone], for which the half-inhibitory concentration (IC50) in test [1] and in test [2] was no more than 500 nM throughout.

As for `COc1cc(Nc2nccc(Nc3cnc4ccccc4c3)n2)ccc1N1CCN(C)CC1` [Compound 94, 2-[3-methoxy-4-(4-methyl-1-piperazinyl)phenylamino]-4-(3-quinolylamino)pyrimidine], the IC50 in test [1] and in test [2] was no more than 500 nM throughout.

In the case of `COc1cc(Nc2nccc(Nc3cc4cc(Cl)ccc4[nH]c3=O)n2)ccc1O[C@H]1C[C@H](N(C)C)C1` [Compound 109, 6-chloro-3-(2-{3-methoxy-4-[(1r,3r)-3-(dimethylamino)cyclobutoxy]phenyl-amino}-4-pyrimidinylamino)-1,2-dihydro-2-quinolinone], the results for the IC50 in test [1] and in test [2] were no more than 500 nM and 500 to 2000 nM, respectively.

For the molecule `COc1cc(Nc2nccc(Nc3cnc4cc(F)c(F)cc4c3)n2)ccc1O[C@H]1C[C@@H](N(C)C)C1` [Compound 115, 4-(6,7-difluoro-3-quinolylamino)-2-{3-methoxy-4-[(1s,3s)-3-(dimethylamino)cyclobutoxy]phenylamino}pyrimidine], the results for the IC50 in test [1] and in test [2] were no more than 500 nM and 500 to 2000 nM, respectively.

In the case of `COc1cc(Nc2nccc(Nc3cnc4c(Cl)cc(F)cc4c3)n2)ccc1O[C@H]1C[C@@H](N(C)C)C1` [Compound 116, 4-(8-chloro-6-fluoro-3-quinolylamino)-2-{3-methoxy-4-[(1s,3s)-3-(dimethylamino)cyclobutoxy]phenylamino}pyrimidine], the half-maximal inhibitory concentration (IC50) in test [1] was no more than 500 nM; in test [2], 500 to 2000 nM.

With `CN(C)CC(=O)N1CCc2ccc(Nc3nccc(Nc4cnc5ccc(Cl)cc5c4)n3)cc21` [Compound 129, 1-(6-((4-((6-chloroquinolin-3-yl)amino)pyrimidin-2-yl)amino)indolin-1-yl)-2-(dimethylamino)ethan-1-one], the IC50 in test [1] and in test [2] was no more than 500 nM each time.

On to `CN(C)CC(=O)N1CCc2ccc(Nc3nccc(Nc4cnc5ccc(Br)cc5c4)n3)cc21` [Compound 130, 1-(6-((4-((6-bromoquinolin-3-yl)amino)pyrimidin-2-yl)amino)indolin-1-yl)-2-(dimethylamino)ethan-1-one], for which the IC50 in test [1] and in test [2] was no more than 500 nM each time.

With `CN(C)CC1COc2cc(Nc3nccc(Nc4cnc5ccccc5c4)n3)ccc2O1` (centres unmarked) [Compound 135, N2-(2-((dimethylamino)methyl)-2,3-dihydrobenzo[b][1,4]dioxin-6-yl)-N4-(quinolin-3-yl)pyrimidine-2,4-diamine], the IC50 in test [1] and in test [2] was no more than 500 nM throughout.

Regarding `CN(C)CC1COc2cc(Nc3nccc(Nc4cnc5ccc(Cl)cc5c4)n3)ccc2O1` (centres unmarked) [Compound 136, N4-(6-chloroquinolin-3-yl)-N2-(2-((dimethylamino)methyl)-2,3-dihydrobenzo[b][1,4]dioxin-6-yl)pyrimidine-2,4-diamine], the IC50 in test [1] and in test [2] was no more than 500 nM throughout.

In the case of `CN(C)CC(=O)N1CCc2ncc(Nc3nccc(Nc4cnc5ccccc5c4)n3)cc21` [Compound 137, 2-(dimethylamino)-1-(6-((4-(quinolin-3-ylamino)pyrimidin-2-yl)amino)-2,3-dihydro-1H-pyrrolo[3,2-b]pyridin-1-yl)ethan-1-one], the IC50 in test [1] and in test [2] was no more than 500 nM in each case.

Turning to `CN(C)CC(=O)N1CCc2ccc(Nc3nccc(Nc4cnc5c(F)c(F)ccc5c4)n3)cc21` [Compound 138, 1-(6-((4-((7,8-difluoroquinolin-3-yl)amino)pyrimidin-2-yl)amino)indolin-1-yl)-2-(dimethylamino)ethan-1-one], the IC50 in test [1] and in test [2] was no more than 500 nM in each case.

Consider `CN1CC(N2CCc3ccc(Nc4nccc(Nc5cnc6ccccc6c5)n4)cc32)C1` [Compound 139, N2-(1-(1-methylazetidin-3-yl)indolin-6-yl)-N4-(quinolin-3-yl)pyrimidine-2,4-diamine], for which the IC50 in test [1] and in test [2] was no more than 500 nM each time.

For `CN(C)CC1COc2ccc(Nc3nccc(Nc4cnc5ccccc5c4)n3)cc2O1` (centres unmarked) [Compound 140, N2-(3-((dimethylamino)methyl)-2,3-dihydrobenzo[b][1,4]dioxin-6-yl)-N4-(quinolin-3-yl)pyrimidine-2,4-diamine], the IC50 in test [1] and in test [2] was no more than 500 nM each time.

For `CN(C)CC(=O)N1CCc2ncc(Nc3nccc(Nc4cnc5ccc(Cl)cc5c4)n3)cc21` [Compound 141, 1-(6-((4-((6-chloroquinolin-3-yl)amino)pyrimidin-2-yl)amino)-2,3-dihydro-1H-pyrrolo[3,2-b]pyridin-1-yl)-2-(dimethylamino)ethan-1-one], the IC50 in test [1] and in test [2] was no more than 500 nM each time.

`CN(C)CC1COc2ccc(Nc3nccc(Nc4cnc5ccc(Cl)cc5c4)n3)cc2O1` (centres unmarked) [Compound 142, N4-(6-chloroquinolin-3-yl)-N2-(3-((dimethylamino)methyl)-2,3-dihydrobenzo[b][1,4]dioxin-6-yl)pyrimidine-2,4-diamine]: the 50% inhibitory concentration (IC50) in test [1] and in test [2] was 500 to 2000 nM throughout.

On to `CN(C)CCN1CCc2ccc(Nc3nccc(Nc4cnc5ccccc5c4)n3)cc21` [Compound 143, N2-(1-(2-(dimethylamino)ethyl)indolin-6-yl)-N4-(quinolin-3-yl)pyrimidine-2,4-diamine], for which the IC50 in test [1] and in test [2] was no more than 500 nM in each case.

For the molecule `CN(C)C[C@H]1COc2cc(Nc3nccc(Nc4cnc5ccc(Cl)cc5c4)n3)ccc2O1` [Compound 144, (S)—N4-(6-chloroquinolin-3-yl)-N2-(2-((dimethylamino)methyl)-2,3-dihydrobenzo[b][1,4]dioxin-6-yl)pyrimidine-2,4-diamine], the IC50 in test [1] and in test [2] was no more than 500 nM in each case.

On to `CN(C)C[C@@H]1COc2cc(Nc3nccc(Nc4cnc5ccc(Cl)cc5c4)n3)ccc2O1` [Compound 145, (R)—N4-(6-chloroquinolin-3-yl)-N2-(2-((dimethylamino)methyl)-2,3-dihydrobenzo[b][1,4]dioxin-6-yl)pyrimidine-2,4-diamine], for which the IC50 in test [1] and in test [2] was no more than 500 nM in each case.

With `CN(C)CC(=O)N1CCc2cc(Nc3nccc(Nc4cnc5ccc(Cl)cc5c4)n3)ccc21` [Compound 146, 1-(5-((4-((6-chloroquinolin-3-yl)amino)pyrimidin-2-yl)amino)indolin-1-yl)-2-(dimethylamino)ethan-1-one], the 50% inhibitory concentration (IC50) in test [1] and in test [2] was no more than 500 nM throughout.

Take `CN(C)CC(=O)N1CCc2ccc(Nc3nccc(Nc4cnc5cc(F)c(F)cc5c4)n3)cc21` [Compound 147, 1-(6-((4-((6,7-difluoroquinolin-3-yl)amino)pyrimidin-2-yl)amino)indolin-1-yl)-2-(dimethylamino)ethan-1-one]: the IC50 in test [1] and in test [2] was 500 to 2000 nM each time.

For `CN(C)CC1CN(C)c2cc(Nc3nccc(Nc4cnc5cc(F)c(F)cc5c4)n3)ccc2O1` (centres unmarked) [Compound 148, N4-(6,7-difluoroquinolin-3-yl)-N2-(2-((dimethylamino)methyl)-4-methyl-3,4-dihydro-2H-benzo[b][1,4]oxazin-6-yl)pyrimidine-2,4-diamine], the 50% inhibitory concentration (IC50) in test [1] and in test [2] was no more than 500 nM in each case.

Turning to `CN(C)CC(=O)N1CCOc2ccc(Nc3nccc(Nc4cnc5cc(F)c(F)cc5c4)n3)cc21` [Compound 149, 1-(6-((4-((6,7-difluoroquinolin-3-yl)amino)pyrimidin-2-yl)amino)-2,3-dihydro-4H-benzo[b][1.4]oxazin-4-yl)-2-(dimethylamino)ethan-1-one], the IC50 in test [1] and in test [2] was no more than 500 nM in each case.

Consider `CN1CCOc2ccc(Nc3nccc(Nc4cnc5cc(F)c(F)cc5c4)n3)cc21` [Compound 150, N4-(6,7-difluoroquinolin-3-yl)-N2-(4-methyl-3,4-dihydro-2H-benzo[b][1,4]oxazin-6-yl)pyrimidine-2,4-diamine], for which the IC50 in test [1] and in test [2] was 500 to 2000 nM in each case.

For orientation: IC50 means the concentration at which inhibition is half-maximal.
